#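 GI50: concentration for 50% inhibition of growth. TGI: concentration producing complete growth inhibition.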
# How the values were obtained:
# Test in all cases: inhibition of tumour cell growth, NCI panel, 384-well format
# [1] = system: HCT-116 colon
# [2] = system: BT-549 breast
# [3] = system: 786-0 renal
# [4] = system: SK-MEL-5 melanoma
# [5] = system: A498 renal
# [6] = system: NCI-H23 lung
# [7] = system: NCI-H460 NSCLC
# [8] = system: U251 glioblastoma
# [9] = system: COLO 205 colon
# [10] = system: MDA-MB-468 breast
# [11] = system: MCF7 breast
# [12] = system: KM12 colon
# [13] = system: HCT-15 colon
compound,measurement,setting,value
CCCS(=O)(=O)Nc1ccc(F)c(C(=O)c2c[nH]c3ncc(-c4ccc(Cl)cc4)cc23)c1F,GI50,[1],3.85 µM
same,TGI,[1],11.5 µM
same,GI50,[2],5.9 µM
same,TGI,[2],19.2 µM
same,GI50,[3],4.03 µM
same,TGI,[3],13.5 µM
same,GI50,[4],0.0794 µM
same,TGI,[4],1.81 µM
same,GI50,[5],2.96 µM
same,TGI,[5],9.4 µM
same,GI50,[6],4.19 µM
same,TGI,[6],13.2 µM
same,GI50,[7],4.97 µM
same,TGI,[7],13.6 µM
same,GI50,[8],4.35 µM
same,TGI,[8],9.9 µM
same,GI50,[9],0.0425 µM
same,TGI,[9],1.18 µM
same,GI50,[10],5.74 µM
same,TGI,[10],9.38 µM
same,GI50,[11],6.82 µM
same,TGI,[11],13.3 µM
same,GI50,[12],4.11 µM
same,TGI,[12],13.1 µM
same,GI50,[13],5.83 µM
same,TGI,[13],13.5 µM
